From EP2161029A1, “Composition comprising peptides” (Unilever N.V., priority 2008, dated 2010) come the findings set out here.

Peptide text beside a SMILES is read from it.

How the values of the data set were obtained:
The pH of simulated gastric fluid (SGF, 0.15 M NaCl, pH 2.5) was increased to 7.5 with […] (40 mM), and the following compounds were added to adjust the pH to 6.8 and simulate a duodenal-jejunal environment and create simulated small intestinal fluid (SIF): (i) a bile salt mixture containing equimolar quantities (0.125 M) of sodium taurocholate and glycodeoxycholic acid in NaHC03 (1 M), (ii) solutions of pancreatin from porcine pancreas (9 mg/mL) in water was prepared and added at approximately physiological ratios. The pH was adjusted to 6.8 with HCl (0.1 M). Peptides were dissolved in SIF at a final peptide concentration of 50 µM. Aliquots (1 mL) were prepared for sampling at different time points. Simulated intestinal digestion was carried out at 37°C, and aliquots (1 mL) were taken at 0, 5, 15, and 60 min after the start of the experiment. After peptide hydrolysis, digestive enzymes were inactivated at 95°C for 15 min and samples were cooled immediately on ice water and stored at -20 °C until further analysis.
Quantification of dipeptides derived from digestion were performed using a liquid chromatography multiple reaction ion monitoring-mass spectrometry (LC-MRM-MS) method as described van Platerink CJ, Janssen HG, Horsten R, Haverkamp J. Quantification of ACE inhibiting peptides in human plasma using high performance liquid chromatography-mass spectrometry. J Chromatogr B Analyt Technol Biomed Life Sci 2006,830:151-157. Peptide separation was performed on an Atlantis Hilic Silica column (2.1 x 150 mm, 3 µm particle size) and a Micromass Quattro-II (Milford MA, USA) with HP1100LC system (Hewlett-Packard, USA). The gradient started at 100% 0.1% trifluoro acetic acid in Milli-Q water and ended at 70% 0.1 % trifluoro acetic acid in acetonitrile. To support the ionization, a 70/30 mixture of propionic acid and propanol-2 was added postcolumn at a flow rate of 50 mL·min-1. All analyses were conducted on an Alliance 2795 HPLC (Waters, Milford MA, USA) combined with a Quattro Premier triple quadrupole mass spectrometer from the same supplier.
An intestinal stability data set consisting of 228 dipeptides was generated based on the results from the simulated digestion experiments. The area under the time - peptide concentration curve was calculated and used for further analysis and modelling. An ACE inhibitory dipeptide database consisting of 228 dipeptides was constructed.
For each peptide the relative stability (in % of initial dipeptide concentration) was plotted against time and the area under the curve (AUC) was calculated.
`NC(N)=NCCC[C@H](N)C(=O)N[C@@H](Cc1c[nH]c2ccccc12)C(=O)O` [Arg-Trp] (H-Arg-Trp-OH): the “Stability observed AUC” value is given as 265±10.
Same read-out and setting: then `NC(=O)C[C@H](N)C(=O)N[C@@H](Cc1ccc(O)cc1)C(=O)O` [Asn-Tyr] (H-Asn-Tyr-OH), with 240±12.
Compound `N[C@@H](CC(=O)O)C(=O)N1CCC[C@H]1C(=O)O` [DP, Asp-Pro] (H-Asp-Pro-OH) yielded an AUC of over 5900 units.
For the compound `N[C@@H](CC(=O)O)C(=O)N[C@@H](Cc1c[nH]c2ccccc12)C(=O)O` [DW] (H-Asp-Trp-OH), the “intestinal stability (in words)” value was “high intestinal stability”.
Take `C[C@H](NC(=O)CN)C(=O)O` [GA, Gly-Ala] (H-Gly-Ala-OH): the AUC is given as over 5900 units.
`NCC(=O)N[C@@H](CS)C(=O)O` [GC] (H-Gly-Cys-OH): the “intestinal stability (in words)” value is recorded as “high intestinal stability”.
Still for that read-out and setting: the same measure for `NCC(=O)N[C@@H](CC(N)=O)C(=O)O` [GN] (H-Gly-Asn-OH): “high intestinal stability”.
The compound `CC(C)[C@H](NC(=O)CN)C(=O)O` [GV, Gly-Val] (H-Gly-Val-OH) registered an AUC of over 5900 units.
As to `N=C(N)NCCC[C@H](NC(=O)CN)C(=O)O` [Gly-Arg] (H-Gly-Arg-OH), the “Stability observed AUC” value came out at 4622±1283.
Regarding `O=C(O)[C@H](Cc1c[nH]c2ccccc12)NC(=O)[C@@H]1CCCN1` [PW] (H-Pro-Trp-OH), the “intestinal stability (in words)” value is recorded as “high intestinal stability”.
For the compound `N[C@@H](CO)C(=O)N1CCC[C@H]1C(=O)O` [Ser-Pro] (H-Ser-Pro-OH), the “Stability observed AUC” value is listed as 4887±639 and the “intestinal stability (in words)” value is recorded as “most intestinal stable dipeptide”.
Turning to `NC(=O)C[C@H](NC(=O)[C@@H](N)Cc1c[nH]c2ccccc12)C(=O)O` [Trp-Asn] (H-Trp-Asn-OH), the “Stability observed AUC” value turned out to be 4812±901.
As to `N[C@@H](Cc1c[nH]c2ccccc12)C(=O)NCC(=O)O` [Trp-Gly] (H-Trp-Gly-OH), the “Stability observed AUC” value is given as 4280±721.
Consider `N[C@@H](Cc1c[nH]c2ccccc12)C(=O)N[C@@H](Cc1c[nH]cn1)C(=O)O` [Trp-His] (H-Trp-His-OH), for which the “Stability observed AUC” value came to 2934±800.
With `N[C@@H](Cc1c[nH]c2ccccc12)C(=O)N1CCC[C@H]1C(=O)O` [Trp-Pro] (H-Trp-Pro-OH), the “Stability observed AUC” value was 4606±129.
Turning to `C[C@H](NC(=O)[C@@H](N)Cc1ccc(O)cc1)C(=O)O` [Tyr-Ala], the “Stability observed AUC” value is listed as 4593±1930.
Take `N[C@@H](Cc1ccc(O)cc1)C(=O)NCC(=O)O` [Tyr-Gly]: the “Stability observed AUC” value is recorded as 3384±475 and the “intestinal stability (in words)” value was “high stability”.
In the case of `N[C@@H](Cc1ccc(O)cc1)C(=O)N1CCC[C@H]1C(=O)O` [Tyr-Pro] (H-Tyr-Pro-OH), the “Stability observed AUC” value is on record as 4187±399.
On the same count and under the same terms, the same measure for `CC(C)[C@H](N)C(=O)N[C@@H](Cc1ccc(O)cc1)C(=O)O` [Val-Tyr] (H-Val-Tyr-OH): 373±27.
